Laboratory results published in US7763621B2, “Vitronectin receptor antagonist derivatives, method for preparing same, use thereof as medicines and pharmaceutical compositions containing same” (Galapagos SAS, priority 2002, dated 2010).

Molecular target: human αVβ3 receptor (Homo sapiens, UniProt P05106+P06756)
Experiment: Kistrin/Vitronectin receptor (αVβ3) ELISA test
Assay type: binding
Settings: co-incubated 3 hours at ambient temperature, read-out: K/VnR IC50
Experimental: Pharmacological Test: Kistrin/Vitronectin Receptor (αVβ3) ELISA Test
96-well MaxiSorp plates are coated overnight at […] with 100 μl of Kistrin at 1 μg/ml (dilution in coating buffer: 0.05M (carbonate)/NaOH pH 9.6. The next day, the wells are emptied and the ligands (kistrin) are then fixed (fixation buffers: PBS containing 0.5% BSA (pH=7.4)) for 1 hour at ambient temperature under gentle stirring of 125 rpm. The wells are washed six times (washing buffer: PBS containing 0.05% Tween 20 (pH 7.7) then the following is added per well and in this order:
40 μl of incubation buffer
10 μl of the dilution of the product to be tested (the products are diluted in a 50:50 DMSO/water mixture)
50 μl of human αVβ3 receptor (cf Pytella et al. Methods Enzymol. (1987) 144 (Dilution in incubation buffer, adapted according to the batch of receptor and according to the ligand). The ligand, the αVβ3 receptor and the products to be studied are co-incubated for 3 hours at ambient temperature with gentle stirring of 125 rpm.
The wells are again washed six times, then incubated for 2 hours at ambient temperature with gentle stirring of 125 rpm, in the presence of 100 μl of anti-receptor antibody coupled to a peroxidase (The 4B12-HRP antibody is diluted in incubation buffer (50 mM TRIS pH 7.4; 0.5% BSA; 0.05% Tween 20; 1 mM MnCl2; 50 μM CaCl2; 50 μM MgCl2; 100 mM NaCl). The dilution is to be adapted according to the batch of receptor.
The wells are then washed six times before measurement of the ligand-receptor bond is carried out using a peroxidase developer kit (TBM Microwell Peroxidase Substrate System Kirkegaard; Ref cat 50-76-00).
This kit contains a flask A of substrate (3,3′,5,5′-tetramethylebenzidine at 0.4 g/l) and a flask B (0.02% H2O2 in Citrate/Citric acid). Extemporaneously, one volume of A is mixed with one volume of B, then the reaction mixture is distributed at a rate of 100 μl/well.
The enzymatic reaction develops between 6 to 10 minutes for Kistrin/αVβ3 then its development is stopped by the addition of 100 μl of 1M phosphoric acid. The optical density is determined at 450 nm.
Expression of the Results
The following curve is plotted: the bond percentage as a function of the logarithm of each concentration of the tested product. For each product the IC50 is determined according to the following formula: IC50=(B0+Bmin)/2
B0=Maximum bond in the absence of any product
Bmin=Minimum bond in the presence of the highest concentration of the product.

human αVβ3 receptor, sequence (P06756 31-889 limits assumed): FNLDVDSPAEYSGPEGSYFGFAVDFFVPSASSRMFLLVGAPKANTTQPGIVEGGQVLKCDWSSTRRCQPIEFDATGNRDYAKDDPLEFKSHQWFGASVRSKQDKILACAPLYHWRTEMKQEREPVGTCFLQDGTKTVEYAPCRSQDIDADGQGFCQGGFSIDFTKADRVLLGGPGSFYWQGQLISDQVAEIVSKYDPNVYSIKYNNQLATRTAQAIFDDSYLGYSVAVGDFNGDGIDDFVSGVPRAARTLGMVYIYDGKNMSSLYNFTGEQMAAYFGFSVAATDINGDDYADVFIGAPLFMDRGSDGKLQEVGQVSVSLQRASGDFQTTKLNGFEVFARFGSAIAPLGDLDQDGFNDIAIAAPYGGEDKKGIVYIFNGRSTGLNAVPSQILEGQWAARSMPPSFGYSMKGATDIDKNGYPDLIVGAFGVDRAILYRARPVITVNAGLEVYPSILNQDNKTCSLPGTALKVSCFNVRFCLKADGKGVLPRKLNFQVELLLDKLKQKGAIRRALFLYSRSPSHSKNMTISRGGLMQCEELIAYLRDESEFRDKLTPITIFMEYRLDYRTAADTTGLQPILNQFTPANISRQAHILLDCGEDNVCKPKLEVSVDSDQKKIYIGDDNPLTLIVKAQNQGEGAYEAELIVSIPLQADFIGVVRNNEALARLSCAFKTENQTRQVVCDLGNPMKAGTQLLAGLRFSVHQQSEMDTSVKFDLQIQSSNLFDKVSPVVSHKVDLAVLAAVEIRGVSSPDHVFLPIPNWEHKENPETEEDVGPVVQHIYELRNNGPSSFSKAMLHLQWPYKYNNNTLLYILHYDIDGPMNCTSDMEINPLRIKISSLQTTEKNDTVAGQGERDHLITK
human αVβ3 receptor, sequence (P06756 891-1048 partner limits assumed): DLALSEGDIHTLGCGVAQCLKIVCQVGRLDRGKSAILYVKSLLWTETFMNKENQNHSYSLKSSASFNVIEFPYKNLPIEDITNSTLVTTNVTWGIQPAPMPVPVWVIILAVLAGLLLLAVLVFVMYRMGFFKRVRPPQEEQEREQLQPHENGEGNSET
human αVβ3 receptor, sequence (P05106 27-788): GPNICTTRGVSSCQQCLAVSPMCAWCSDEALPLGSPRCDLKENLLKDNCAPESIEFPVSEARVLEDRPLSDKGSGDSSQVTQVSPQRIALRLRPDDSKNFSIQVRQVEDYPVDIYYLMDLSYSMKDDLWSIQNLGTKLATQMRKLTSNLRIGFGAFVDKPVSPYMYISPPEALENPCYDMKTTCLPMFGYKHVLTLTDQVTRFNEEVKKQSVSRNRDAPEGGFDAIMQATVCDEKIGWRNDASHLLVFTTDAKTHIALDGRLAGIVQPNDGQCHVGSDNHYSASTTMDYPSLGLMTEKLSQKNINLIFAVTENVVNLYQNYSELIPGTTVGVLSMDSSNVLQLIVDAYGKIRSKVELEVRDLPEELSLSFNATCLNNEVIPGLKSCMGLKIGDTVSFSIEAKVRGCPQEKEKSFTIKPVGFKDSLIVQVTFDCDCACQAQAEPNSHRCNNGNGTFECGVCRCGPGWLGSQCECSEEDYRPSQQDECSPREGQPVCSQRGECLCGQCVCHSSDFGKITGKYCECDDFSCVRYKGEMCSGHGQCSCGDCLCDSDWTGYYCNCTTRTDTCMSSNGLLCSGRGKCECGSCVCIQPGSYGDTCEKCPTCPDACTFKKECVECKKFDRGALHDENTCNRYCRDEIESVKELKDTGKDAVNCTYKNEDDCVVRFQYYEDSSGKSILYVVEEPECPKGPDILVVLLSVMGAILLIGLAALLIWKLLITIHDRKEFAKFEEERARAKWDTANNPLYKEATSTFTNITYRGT

IC50 [nM] | Structure (SMILES)
3 | CCc1c(NCC(NC(=O)OCc2ccccc2)C(=O)O)ncnc1N1CCC(c2ccc3c(n2)NCCC3)CC1 (racemic) [Example 1, 3-[[5-ethyl-6-[4-(1,2,3,4-tetrahydro-1,8-naphthyridin-7-yl)-1-piperidinyl]-4-pyrimidinyl]amino]-N-[(phenylmethoxy)carbonyl]alanine, bis(trifluoroacetate)]
5.1 | Cc1c(NCC(NC(=O)OCc2ccccc2)C(=O)O)ncnc1N1CCC(C(=O)N=C2NCCCN2)CC1 (racemic) [Example 4, 3-[[6-[4-[(1,2,3,4,5,6-hexahydro-2-pyrimidinyl)iminocarbonyl]-1-piperidinyl]-5-methyl-4-pyrimidinyl]amino]-N-[(phenylmethoxy)carbonyl]alanine]
3.1 | Cc1c(NCC(NC(=O)OCc2ccccc2)C(=O)O)ncnc1N1CCC(c2ccc3c(n2)NCCC3)CC1 (racemic) [Example 3, 3-[[6-[4-(1,2,3,4-tetrahydro-1,8-naphthyridin-7-yl)-1-piperidinyl]-5-methyl-4-pyrimidinyl]amino]-N-[(phenylmethoxy)carbonyl]alanine]
160 | CCc1c(NCC(NC(=O)OCc2ccccc2)C(=O)O)ncnc1N1CCC(C(=O)N=C2NCCCN2)CC1 (racemic) [Example 2, 3-[[5-ethyl-6-[4-[(1,2,3,4,5,6-hexahydro-2-pyrimidinyl)iminocarbonyl]-1-piperidinyl]-4-pyrimidinyl]amino]-N-[(phenylmethoxy)carbonyl]alanine]

Tested on: TPXT rats
Experiment: Hypercalcemia induced by the parathyroid hormone (PTH) in a thyroparathyroidectomized (TPXT) rat model
Assay type: in vivo
Settings: doses ranging from twice 1 mg/kg to twice 10 mg/kg by subcutaneous route in the rat, at time 0 and 3 hours; serum Ca at 6 hours
Experimental: Hypercalcemia induced by the parathyroid hormone (PTH) in a thyroparathyroidectomized (TPXT) rat model
Stimulation of bone resorption is induced in TPXT rats by perfusion of PTH and the variations of bone resorption are monitored by the concentration of calcium in the serum.
Male Sprague Dawley rats weighing 150-200 g are thyroparathyroidectomized. The rats are subjected to a standard diet containing 7 g Ca/kg (UAR) and Volvic water. The effectiveness of the thyroparathyroidectomy is tested by measuring the concentrations of Ca in the serum 8 days after the operation in animals which have been starved since the previous day. The rats are considered as thyroparathyroidectomized when the Ca levels in the serum are less than 80 mg/l. The PTH (1-34) of the rat (Bachem) is dissolved in 0.15M of NaCl Cys.HCl 2% and delivered by osmotic minipumps (ALZET 2001D) at a dose of 200 pmol/kg/h. The minipumps are introduced into the intraperitoneal cavities under anaesthesia (ketamine—75 mg/kg and acepromazine—2.5 mg/kg) of the TPXT rats which have been starved since the previous day. The control TPXT rats receive the minipumps filled with the PTH vehicle.
Either the product to be tested or the vehicle (controls and rats treated with the PTH) are administered twice by sub-cutaneous route (2 ml/kg of body weight) at time 0 and 3 hours after the start of the infusion of PTH. The test is continued for the next 6 hours. At the end of the treatment, all the blood is collected after decapitation. The blood samples are centrifuged at 3000 rpm for 15 minutes (CR422 Jouan) in order to obtain the serum.
The total concentrations of Ca in the serum are measured by colorimetry (Ciba-Corning) using an IEMS Labsystems microplate reading system, at 540 nm.
The difference between the average calcemia values of the treated rats and the control groups is analyzed by variance and by the Dunnett test.
The activity of a product is calculated by the following formula: […]

Structure (SMILES) | activity against PTH-induced hypercalcemia (total Ca in the serum)
CCc1c(NC[C@H](NC(=O)OCc2ccccc2)C(=O)O)ncnc1N1CCC(c2ccc3c(n2)NCCC3)CC1 [Example 9, 3-[[5-ethyl-6-[4-(1,2,3,4-tetrahydro-1,8-naphthyridin-7-yl)-1-piperidinyl]-4-pyrimidinyl]amino]-N-[(phenylmethoxy)carbonyl]alanine, bis(trifluoroacetate)] | active
CCc1c(NC[C@H](NC(=O)OCc2ccccc2)C(=O)OC(C)C)ncnc1N1CCC(c2ccc3c(n2)NCCC3)CC1 [Example 13, isopropyl 3-[[6-[4-(1,2,3,4-tetrahydro-1,8-naphthyridin-7-yl)-1-piperidinyl]-5-ethyl-4-pyrimidinyl]amino]-N-[(phenylmethoxy)carbonyl]alaninate] | active
Cc1c(NC[C@H](NC(=O)OCc2ccccc2)C(=O)O)ncnc1N1CCC(c2ccc3c(n2)NCCC3)CC1 [Example 6, 3-[[5-methyl-6-[4-(1,2,3,4-tetrahydro-1,8-naphthyridin-7-yl)-1-piperidinyl]-4-pyrimidinyl]amino]-N-[(phenylmethoxy)carbonyl]alanine, bis(trifluoroacetate)] | active
